What all share (type): cell-based
In assay [1] the test system is HUMAN RSV-A (“LONG” STRAIN). Kind of assay: RSV-A assay (CPE, ATPlite) in Hep-2 cells. As to conditions: human respiratory syncytial virus, 120 h, MOI 0.1, 5-day incubation. The method in brief: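 Hep-2 cells (8,000/well) given 2-fold serial compound dilutions in duplicate, then infected with RSV-A Long strain at MOI 0.1. After 5 days, virus-induced cytopathic effect quantified as cellular ATP by ATPlite luminescence, against virus-only and uninfected controls; EC50 reported in ranges.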

Assay [2] has as its system hMPV A2 TN/94-49. Kind of assay: HMPV antiviral assay Method 1 (LLC-MK2 cells, ATP-Lite). As to conditions: hMPV A2 TN/94-49, LLC-MK2 cells. The method in brief:
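LLC-MK2 cells infected in suspension with hMPV A2 TN/94-49 at MOI 0.005, 5,000 cells/well, in serum-free OptiMEM with 2 μg/mL TPCK-trypsin (final) and CaCl2; compounds in duplicate, 10 points, 2 μM top, 2.5-fold dilutions. After 7 days at 37 °C, cell health by ATP-Lite luminescence; EC50 by four-parameter fit.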

Assay [3] concerns hMPV A2 TN/94-49. Kind of assay: HMPV antiviral assay Method 2 (LLC-MK2 cells with CP-100-356, ATP-Lite). Particulars: hMPV A2 TN/94-49, LLC-MK2 cells, 4 μM CP-100-356, Method 2. The method in brief: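 LLC-MK2 cells infected in suspension with hMPV A2 TN/94-49 at MOI 0.16, in serum-free OptiMEM with final 2 μg/mL TPCK-trypsin and 2 μM CP-100-356 (P-gp inhibitor). Compounds tested in duplicate, top 200 nM, 2.5-fold, 10 points; 7 days at 37 °C. ATP-Lite cell health normalised to controls; EC50 by four-parameter fit.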

For 33 compounds, EC50 results are on record in US12358921B2, “Antiviral heterocyclic compounds” (priority 2022, dated 2025).

Take `Cc1cnc2c(OC3CC3)cc(C(=O)NC[C@@](O)(c3ccccc3)c3cc4c(c(-c5cc(Cl)c(F)cc5F)n3)OC[C@]4(C)C(N)=O)cc2c1` [Example 182]: the values for the EC50 in assay [1], in assay [2] and in assay [3] were < 0.2 µM, < 0.5 µM and < 0.2 µM, respectively.
With `COc1cc(C(=O)NC[C@@](O)(c2ccccc2)c2cc3c(c(-c4cc(Cl)c(F)cc4F)n2)OC[C@]3(C)C(N)=O)cc2cc(C3CC3)nnc12` [Example 90], the EC50 in assay [1] is < 0.2 µM; in assay [2], < 0.5 µM; in assay [3] it was < 0.2 µM.
As for `COc1cc(C(=O)NC[C@@](O)(c2ccccc2)c2cc3c(c(-c4ccc5c(c4)OC(F)(F)O5)n2)OC[C@]3(C)C(N)=O)cc2cn(C3(F)CC3)nc12` [Example 19], the results for the EC50 in assay [1], in assay [2] and in assay [3] were < 0.2 µM, < 0.5 µM and < 0.2 µM, respectively.
Regarding `COc1cc(C(=O)NC[C@@](O)(c2cccc(F)c2)c2cc3c(c(-c4ccc5c(c4Cl)OC(F)(F)O5)n2)OC[C@]3(C)C(N)=O)cc2cn(C(F)F)nc12` [Example 276], the EC50 in assay [1] is < 0.2 µM; in assay [2] it was < 0.5 µM; in assay [3], < 0.2 µM.
For the compound `COc1cc(C(=O)NC[C@@](O)(c2ccc(F)cc2)c2cc3c(c(-c4ccc(F)c(Cl)c4Cl)n2)OC[C@]3(C)C(N)=O)cc2cn(C3(F)CC3)nc12` [Example 43], the EC50 in assay [1] is < 0.2 µM; in assay [2], < 0.5 µM; in assay [3], < 0.2 µM.
Take `C[C@@H](O)COc1cc(C(=O)NC[C@](O)(c2cc3c(c(-c4ccc(F)c(Cl)c4F)n2)OC[C@]3(C)C(N)=O)C2CC2)cc2cn(C3CC3)nc12` [Example 38]: the EC50 in assay [1] is < 0.2 µM; in assay [2], > 0.5 µM; in assay [3] it was < 0.2 µM.
As for `COc1cc(C(=O)NC[C@@](O)(c2ccccc2)c2cc3c(c(-c4cccc(Cl)c4Cl)n2)OC[C@]3(C)C(N)=O)cc2cn(C3(F)CC3)nc12` [Example 262], the results for the EC50 in assay [1], in assay [2] and in assay [3] were < 0.2 µM, < 0.5 µM and < 0.2 µM, respectively.
Consider `COc1cc(C(=O)NC[C@](O)(c2cc3c(c(-c4ccc5c(c4)OC(F)(F)O5)n2)OC[C@]3(C)C(N)=O)C2CC2)cc2cc(C)c(F)nc12` [Example 22], for which the EC50 in assay [1] was < 0.2 µM; in assay [2], < 0.5 µM; in assay [3] it was < 0.2 µM.
`COc1cc(C(=O)NC[C@@](O)(c2ccccc2)c2cc3c(c(-c4cc(Cl)c(F)cc4F)n2)OC[C@]3(C)C(N)=O)cc2cn(C3(F)CC3)nc12` [Example 158]: the EC50 in assay [1] is < 0.2 µM; in assay [2], < 0.5 µM; in assay [3], < 0.2 µM.
For the compound `COc1cc(C(=O)NC[C@@](O)(c2cccnc2)c2cc3c(c(-c4cc(Cl)c(F)cc4F)n2)OC[C@]3(C)C(N)=O)cc2cn(C3CC3)nc12` [Example 131], the figures for the EC50 in assay [1], in assay [2] and in assay [3] were < 0.2 µM, < 0.5 µM and < 0.2 µM, respectively.
On to `COc1cc(C(=O)NC[C@@](O)(c2ccccc2)c2cc3c(c(-c4cc(C(F)F)c(F)cc4F)n2)OC[C@]3(C)C(N)=O)cc2cn(C3(F)CC3)nc12` [Example 298], for which the EC50 in assay [1] was < 0.2 µM; in assay [2], < 0.5 µM; in assay [3], < 0.2 µM.
As to `COc1cccc([C@](O)(CNC(=O)c2cc(OC)c3nn(C4CC4)cc3c2)c2cc3c(c(-c4cc(Cl)c(F)cc4F)n2)OC[C@]3(C)C(N)=O)c1` [Example 160], the values for the EC50 in assay [1], in assay [2] and in assay [3] were < 0.2 µM, < 0.5 µM and < 0.2 µM, respectively.
Take `C[C@]1(C(N)=O)COc2c1cc([C@@](O)(CNC(=O)c1cc(OCCO)c3nn(C4CC4)cc3c1)C1CC1)nc2-c1ccc(F)c(Cl)c1F` [Example 37]: the EC50 in assay [1] is < 0.2 µM; in assay [2], > 0.5 µM; in assay [3] it was < 0.2 µM.
`COc1cc(C(=O)NC[C@@](O)(c2ccsc2)c2cc3c(c(-c4cc(F)c(F)cc4F)n2)OC[C@]3(C)C(N)=O)cc2cn(C3(F)CC3)nc12` [Example 179]: the EC50 is < 0.2 µM in assay [1], < 0.5 µM in assay [2] and < 0.2 µM in assay [3].
Consider `COc1cc(C(=O)NC[C@@](O)(c2ccccc2)c2cc3c(c(-c4cc(Cl)ccc4F)n2)OC[C@]3(C)C(N)=O)cc2cn(C3CC3)nc12` [Example 144], for which the figures for the EC50 in assay [1], in assay [2] and in assay [3] were < 0.2 µM, < 0.5 µM and < 0.2 µM, respectively.
`Cc1cnc2c(OC(F)F)cc(C(=O)NC[C@@](O)(c3ccccc3)c3cc4c(c(-c5cc(Cl)c(F)cc5F)n3)OC[C@]4(C)C(N)=O)cc2c1` [Example 183]: the EC50 was < 0.2 µM in assay [1], < 0.5 µM in assay [2] and < 0.2 µM in assay [3].
`COc1cc(C(=O)NC[C@@](O)(c2ccccc2)c2cc3c(c(-c4cc(F)c(F)cc4F)n2)OC[C@]3(C)C(N)=O)cc2cn(C3(F)CC3)nc12` [Example 170]: the results for the EC50 in assay [1], in assay [2] and in assay [3] were < 0.2 µM, < 0.5 µM and < 0.2 µM, respectively.
As for `C[C@]1(C(N)=O)COc2c1cc([C@@](O)(CNC(=O)c1cc(OC3CC3)c3nn(C4(F)CC4)cc3c1)C1CC1)nc2-c1cc(Cl)c(F)cc1F` [Example 5], the figures for the EC50 in assay [1], in assay [2] and in assay [3] were < 0.2 µM, < 0.5 µM and < 0.2 µM, respectively.
In the case of `COc1cc(C(=O)NC[C@@](O)(c2ccccc2)c2cc3c(c(-c4ccc(F)c(Cl)c4Cl)n2)OC[C@]3(C)C(N)=O)cc2cn(C(F)F)nc12` [Example 258], the figures for the EC50 in assay [1], in assay [2] and in assay [3] were < 0.2 µM, < 0.5 µM and < 0.2 µM, respectively.
On to `COc1cc(C(=O)NC[C@@](O)(c2ccccn2)c2cc3c(c(-c4cc(Cl)c(F)cc4F)n2)OC[C@]3(C)C(N)=O)cc2cn(C3CC3)nc12` [Example 463], for which the figures for the half-maximal effective concentration (EC50) in assay [1], in assay [2] and in assay [3] were < 0.2 µM, < 0.5 µM and < 0.2 µM, respectively.
For `COc1cc(C(=O)NC[C@@](O)(c2ccccc2)c2cc3c(c(-c4cc(Cl)c(F)cc4F)n2)OC[C@]3(C)C(N)=O)cc2cc(Br)cnc12` [Example 185], the results for the EC50 in assay [1], in assay [2] and in assay [3] were < 0.2 µM, < 0.5 µM and < 0.2 µM, respectively.
`COc1cc(C(=O)NC[C@@](O)(c2cccc(F)c2)c2cc3c(c(-c4cccc(Cl)c4Cl)n2)OC[C@]3(C)C(N)=O)cc2cn(C3(F)CC3)nc12` [Example 291]: the EC50 in assay [1] is < 0.2 µM; in assay [2] it was < 0.5 µM; in assay [3], < 0.2 µM.
For the compound `COc1cc(C(=O)NC[C@](O)(c2cc3c(c(-c4cc(F)c(F)cc4F)n2)OC[C@]3(C)C(N)=O)C2CC(F)(F)C2)cc2cn(C(F)F)nc12` [Example 33], the EC50 in assay [1] was < 0.2 µM; in assay [2], > 0.5 µM; in assay [3] it was < 0.2 µM.
Take `[2H]C([2H])([2H])c1nc2ccc(C(=O)NC[C@@](O)(c3cccc(F)c3)c3cc4c(c(-c5ccc(F)c(Cl)c5Cl)n3)OC[C@]4(C)C(N)=O)cc2o1` [Example 281]: the EC50 is < 0.2 µM in assay [1], < 0.5 µM in assay [2] and < 0.2 µM in assay [3].
`COc1cc(C(=O)NC[C@@](O)(c2ccccc2)c2cc3c(c(-c4cc(C(F)F)c(F)cc4F)n2)OC[C@]3(C)C(N)=O)cc2oc(C3CC3)nc12` [Example 299]: the EC50 in assay [1] was < 0.2 µM; in assay [2], < 0.5 µM; in assay [3] it was < 0.2 µM.
Take `COc1cc(C(=O)NC[C@](O)(c2cc3c(c(-c4cc(F)c(F)cc4F)n2)OC[C@]3(C)C(N)=O)C2CC2)cc2cc(C)c(F)nc12` [Example 21]: the values for the EC50 in assay [1], in assay [2] and in assay [3] were < 0.2 µM, < 0.5 µM and < 0.2 µM, respectively.
For the compound `CCc1cc(-c2nc([C@@](O)(CNC(=O)c3cc(OC)c4nn(C5CC5)cc4c3)C3CC3)cc3c2OC[C@]3(C)C(N)=O)ccc1F` [Example 71], the EC50 was < 0.2 µM in assay [1], > 0.5 µM in assay [2] and > 0.2 µM in assay [3].
For `COc1cc(C(=O)NC[C@](O)(c2cc3c(c(-c4cc(Cl)c(F)cc4F)n2)OC[C@]3(C)C(N)=O)c2cccs2)cc2cn(C3CC3)nc12` [Example 474], in that order: < 0.2 µM, < 0.5 µM and < 0.2 µM.
Regarding `COc1cc(C(=O)NC[C@@](O)(c2cccc(F)c2)c2cc3c(c(-c4ccc5c(c4Cl)OC(F)(F)O5)n2)OC[C@]3(C)C(N)=O)cc2cn(C3(F)CC3)nc12` [Example 275], the figures for the EC50 in assay [1], in assay [2] and in assay [3] were < 0.2 µM, < 0.5 µM and < 0.2 µM, respectively.
Regarding `COc1ccc([C@](O)(CNC(=O)c2cc(OC)c3nn(C4(F)CC4)cc3c2)c2cc3c(c(-c4cc(Cl)c(F)cc4F)n2)OC[C@]3(C)C(N)=O)cc1` [Example 166], the EC50 in assay [1] is < 0.2 µM; in assay [2] it was < 0.5 µM; in assay [3] it was < 0.2 µM.
Regarding `COc1cc(C(=O)NC[C@](O)(c2cc3c(c(-c4ccc(F)c(F)c4C)n2)OC[C@]3(C)C(N)=O)C2CC2)cc2cn(C3CC3)nc12` [Example 70], the EC50 was < 0.2 µM in assay [1], < 0.5 µM in assay [2] and < 0.2 µM in assay [3].
Consider `COc1cc(C(=O)NC[C@@](O)(c2cccc(F)c2)c2cc3c(c(-c4cc(Cl)c(F)cc4F)n2)OC[C@]3(C)C(N)=O)cc2cc(C3CC3)nn12` [Example 133], for which the EC50 was < 0.2 µM in assay [1], < 0.5 µM in assay [2] and < 0.2 µM in assay [3].
As for `COc1cc(C(=O)NC[C@@](O)(c2ccccc2)c2cc3c(c(-c4ccc(F)c(F)c4Cl)n2)OC[C@]3(C)C(N)=O)cc2cn(C(F)F)nc12` [Example 213], the EC50 was < 0.2 µM in assay [1], < 0.5 µM in assay [2] and < 0.2 µM in assay [3].
